Experimental findings from ChEMBL document CHEMBL1129709, “(Hydroxyethyl) sulfonamide HIV-1 Protease inhibitors: Identification of the 2-methylbenzoyl moiety at P-2” (Bioorg Med Chem Lett, 1996) are described below.

Data set [1] has as its target T1, Human immunodeficiency virus type 1 protease (Human immunodeficiency virus 1, UniProt Q72874). Nature of the data set: Inhibitory activity against HIV-1 protease in spectrofluorimetric assay.
In data set [2] the test system is CCRF-CEM. The data set can be described thus: Antiviral activity was evaluated against HIV-IIIB strain of HIV-1 in CEM cell culture assay. It counts as functional, cell-based. As to conditions: Homo sapiens.
Data set [3] deals with T1, Human immunodeficiency virus type 1 protease. Nature of the data set: Inhibitory activity was evaluated against recombinant HIV-1 protease using spectrofluorimetric assay.
The test system of data set [4] is CCRF-CEM. Nature of the data set: Toxic dose was evaluated against HIV-IIIB strain of HIV-1 in CEM cell culture assay. As to conditions: Homo sapiens, CEM cells; read-out: TD50 (the source's name).
Data set [5] in a line: Bioavailability in rat. It counts as ADME, organism-based. The settings on record: in vivo.
A short description of data set [6]: Half-life was evaluated in rats. It counts as ADME, organism-based. As to conditions: rat, in vivo.
Data set [7] in a line: Maximum concentration was evaluated in rats. The settings on record: rat, in vivo. It counts as ADME, organism-based.

Regarding `COc1ccc(S(=O)(=O)N(CC(C)C)C[C@@H](O)[C@H](Cc2ccccc2)NC(=O)c2ccccc2C(C)C)cc1`, the midpoint of inhibition in data set [1], the IC50, lay at 49 nM.
On to `COc1ccc(S(=O)(=O)N(CC(C)C)C[C@@H](O)[C@H](Cc2ccccc2)NC(=O)c2ccccc2O)cc1`, for which half-maximal inhibition in data set [1] (IC50) was put at 900 nM.
For `COc1ccc(S(=O)(=O)N(CC(C)C)C[C@@H](O)[C@H](Cc2ccccc2)NC(=O)c2ccc(O)cc2C)cc1`, the EC50 (usually the midpoint of the concentration-response curve) in the data set with CCRF-CEM [2] was 9 nM. Moreover, the IC50 (commonly the concentration at which inhibition is half-maximal) in data set [3] was determined as 5 nM. Moreover, the CC50 in the data set on CCRF-CEM [4] was above 10000 nM.
In turn, `COc1ccc(S(=O)(=O)N(CC(C)C)C[C@@H](O)[C@H](Cc2ccccc2)NC(=O)c2ccccc2C)cc1` gave an EC50 in the data set with CCRF-CEM [2] of 200 nM.
In turn, `COc1ccc(S(=O)(=O)N(CC(C)C)C[C@@H](O)[C@H](Cc2ccccc2)NC(=O)c2ccccc2C(F)(F)F)cc1` displayed a concentration for half-maximal inhibition (IC50) in data set [1] of 37 nM.
As for `COc1ccc(S(=O)(=O)N(CC(C)C)C[C@@H](O)[C@H](Cc2ccccc2)NC(=O)c2cc(O)ccc2C)cc1`, the IC50 in data set [3] came out at 40 nM. The CC50 in the data set on CCRF-CEM [4] was above 10000 nM.
In turn, `COc1ccc(S(=O)(=O)N(CC(C)C)C[C@@H](O)[C@H](Cc2ccccc2)NC(=O)c2cccc(O)c2C)cc1` showed an EC50 with CCRF-CEM [2] of 7 nM. In addition, in data set [5], the bioavailability (as a rule, the share of a dose that reaches the circulation, judged against a reference dose that is usually intravenous) worked out at 12%. Further, the half-life – broadly, the time in which the quantity being followed falls by half – in data set [6] is 1 h. Also, the Cmax (usually the maximum level reached in the sampled fluid or tissue) in data set [7] came to 270 ng/mL. For the same compound, the CC50 with CCRF-CEM [4] is above 10000 nM.
In data set [1], `COc1ccc(S(=O)(=O)N(CC(C)C)C[C@@H](O)[C@H](Cc2ccccc2)NC(=O)c2cccc(C)c2)cc1` registered an IC50 of 27 nM.
`COc1ccc(S(=O)(=O)N(CC(C)C)C[C@@H](O)[C@H](Cc2ccccc2)NC(=O)c2ccc(N)cc2C)cc1`: in the data set with CCRF-CEM [2], the EC50 is 18 nM.
With `COc1ccc(S(=O)(=O)N(CC(C)C)C[C@@H](O)[C@H](Cc2ccccc2)NC(=O)c2cccc(N)c2C)cc1`, the EC50 with CCRF-CEM [2] was 18 nM. The bioavailability in data set [5] is 54%. For the same compound, the half-life in data set [6] was 1 h. The peak level in data set [7] (Cmax) was 1800 ng/mL. Also, the CC50 in the data set on CCRF-CEM [4] is above 10000 nM.
In the data set on CCRF-CEM [2], `COc1ccc(S(=O)(=O)N(CC(C)C)C[C@@H](O)[C@H](Cc2ccccc2)NC(=O)c2cc(N)ccc2C)cc1` displayed a half-maximal effective concentration (EC50) of 82 nM. Further, the CC50 with CCRF-CEM [4] is above 10000 nM.
For `COc1ccc(S(=O)(=O)N(CC(C)C)C[C@@H](O)[C@H](Cc2ccccc2)NC(=O)c2ccc(C)cc2)cc1`, inhibition in data set [1] was half-maximal at 15 nM (IC50).
